Assay results as given in ChEMBL document CHEMBL4184182, “Studies on interactions of carbazole derivatives with DNA, cell image, and cytotoxicity” (Bioorg Med Chem, 2018).
Blank lines part the entries; values can stand above or below the compound they belong to. Active and inactive are the calls of the source. The calls are words filed in the database; no cut-off is given here.

Tests used:
[1] = test system: Quadruplex DNA; assay: Binding affinity to c-Kit G-quadruplex DNA (unknown origin) assessed as compound fluorescence life time at 5 uM after 5 mins by fluorescence titration method (reference value: 0.192 nanoseconds); type: nucleic-acid assay
[2] = test system: Calf thymus DNA; assay: Binding affinity to calf thymus DNA assessed as red shift at 10 uM after 5 mins by UV-Visible absorbance titration method; type: nucleic-acid assay; conditions: Bos taurus
[3] = test system: Quadruplex DNA; assay: Binding affinity to Bcl2 G-quadruplex DNA (unknown origin) assessed as emission maximum at 5 uM after 5 mins by fluorescence titration method (reference value: 584 nanometer); type: nucleic-acid assay
[4] = test system: HepG2; assay: Induction of morphological changes in human HepG2 cells assessed as debris formation at 5 uM after 24 hrs; type: functional, cell-based
[5] = test system: Quadruplex DNA; assay: Binding affinity to human telomeric G-quadruplex DNA assessed as absorption maximum at 5 uM after 5 mins in presence of potassium ion by fluorescence titration method (reference value: 453 nanometer); type: nucleic-acid assay
[6] = Drug uptake in human HepG2 cell nucleus at 3 uM after 30 mins by H33258.staining based confocal microscopic method; type: ADME, subcellular; conditions: hepg2, 0.5 h
[7] = test system: Quadruplex DNA; assay: Binding affinity to c-Kit G-quadruplex DNA (unknown origin) assessed as emission maximum at 5 uM after 5 mins by fluorescence titration method (reference value: 584 nanometer); type: nucleic-acid assay
[8] = test system: dsDNA; assay: Binding affinity to 26-mer duplex DNA (unknown origin) assessed as compound fluorescence life time at 5 uM after 5 mins by fluorescence titration method (reference value: 0.192 nanoseconds); type: nucleic-acid assay
[9] = Drug uptake in RNase-A treated human HepG2 cell cytoplasm at 3 uM after 30 mins by H33258.staining based confocal microscopic method; type: ADME, subcellular; conditions: hepg2, 0.5 h
[10] = test system: Quadruplex DNA; assay: Binding affinity to c-Myc G-quadruplex DNA (unknown origin) assessed as hyperchromicity at 10 uM after 5 mins by UV-Visible absorbance titration method; type: nucleic-acid assay
[11] = test system: Quadruplex DNA; assay: Binding affinity to Bcl2 G-quadruplex DNA (unknown origin) assessed as compound fluorescence life time at 5 uM after 5 mins by fluorescence titration method (reference value: 0.192 nanoseconds); type: nucleic-acid assay
[12] = test system: Quadruplex DNA; assay: Binding affinity to c-Kit G-quadruplex DNA (unknown origin) assessed as red shift at 10 uM after 5 mins by UV-Visible absorbance titration method; type: nucleic-acid assay
[13] = test system: Quadruplex DNA; assay: Binding affinity to c-Myc G-quadruplex DNA (unknown origin) assessed as absorption maximum at 5 uM after 5 mins by fluorescence titration method (reference value: 453 nanometer); type: nucleic-acid assay
[14] = test system: HepG2; assay: Induction of morphological changes in human HepG2 cells assessed as cellular clumping at 5 uM after 24 hrs; type: functional, cell-based
[15] = test system: Quadruplex DNA; assay: Binding affinity to human telomeric G-quadruplex DNA assessed as compound fluorescence life time at 5 uM after 5 mins in presence of potassium ion by fluorescence titration method (reference value: 3.626 nanoseconds); type: nucleic-acid assay
[16] = test system: Quadruplex DNA; assay: Binding affinity to human telomeric G-quadruplex DNA assessed as enhanced fluorescence ratio at 5 uM after 5 mins in presence of sodium ion by fluorescence titration assay relative to control; type: nucleic-acid assay
[17] = test system: Quadruplex DNA; assay: Binding affinity to human telomeric G-quadruplex DNA assessed as compound fluorescence life time at 5 uM after 5 mins in presence of sodium ion by fluorescence titration method (reference value: 3.626 nanoseconds); type: nucleic-acid assay
[18] = test system: Calf thymus DNA; assay: Binding affinity to calf thymus DNA assessed as red shift at 15 uM after 5 mins by UV-Visible absorbance titration method; type: nucleic-acid assay; conditions: Bos taurus
[19] = test system: Quadruplex DNA; assay: Binding affinity to c-Myc G-quadruplex DNA (unknown origin) assessed as hyperchromicity at 15 uM after 5 mins by UV-Visible absorbance titration method; type: nucleic-acid assay
[20] = test system: Quadruplex DNA; assay: Binding affinity to c-Myc G-quadruplex DNA (unknown origin) assessed as absorption maximum at 5 uM after 5 mins by fluorescence titration method (reference value: 405 nanometer); type: nucleic-acid assay
[21] = test system: Quadruplex DNA; assay: Binding affinity to c-Myc G-quadruplex DNA (unknown origin) assessed as emission maximum at 5 uM after 5 mins by fluorescence titration method (reference value: 559 nanometer); type: nucleic-acid assay
[22] = Selectivity ratio of DC50 for 26-mer duplex DNA (unknown origin) to DC50 for human telomeric G-quadruplex DNA in presence of sodium ion
[23] = test system: dsDNA; assay: Binding affinity to 26-mer duplex DNA (unknown origin) assessed as absorption maximum at 5 uM after 5 mins by fluorescence titration method (reference value: 405 nanometer); type: nucleic-acid assay
[24] = test system: Quadruplex DNA; assay: Binding affinity to c-Kit G-quadruplex DNA (unknown origin) assessed as enhanced fluorescence time at 5 uM after 5 mins by fluorescence titration assay relative to control; type: nucleic-acid assay
[25] = test system: dsDNA; assay: Binding affinity to 26-mer duplex DNA (unknown origin) assessed as red shift at 15 uM after 5 mins by UV-Visible absorbance titration method; type: nucleic-acid assay
[26] = test system: dsDNA; assay: Binding affinity to 26-mer duplex DNA (unknown origin) assessed as hyperchromicity at 15 uM after 5 mins by UV-Visible absorbance titration method; type: nucleic-acid assay
[27] = test system: Quadruplex DNA; assay: Binding affinity to Bcl2 G-quadruplex DNA (unknown origin) assessed as red shift at 15 uM after 5 mins by UV-Visible absorbance titration method; type: nucleic-acid assay
[28] = Drug uptake in human HepG2 cell cytoplasm at 10 uM after 2.5 hrs by confocal microscopic method; type: ADME, subcellular; conditions: hepg2, 2.5 h
[29] = test system: Quadruplex DNA; assay: Binding affinity to human telomeric G-quadruplex DNA assessed as emission maximum at 5 uM after 5 mins in presence of potassium ion by fluorescence titration method (reference value: 559 nanometer); type: nucleic-acid assay
[30] = Drug uptake in RNase-A treated human HepG2 cell cytoplasm at 10 uM after 2.5 hrs by confocal microscopic method; type: ADME, subcellular; conditions: hepg2, 2.5 h
[31] = test system: Quadruplex DNA; assay: Binding affinity to c-Myc G-quadruplex DNA (unknown origin) assessed as red shift at 15 uM after 5 mins by UV-Visible absorbance titration method; type: nucleic-acid assay
[32] = test system: Quadruplex DNA; assay: Binding affinity to human telomeric G-quadruplex DNA assessed as enhanced fluorescence time at 5 uM after 5 mins in presence of potassium ion by fluorescence titration assay relative to control; type: nucleic-acid assay
[33] = test system: Quadruplex DNA; assay: Binding affinity to human telomeric G-quadruplex DNA assessed as absorption maximum at 5 uM after 5 mins in presence of potassium ion by fluorescence titration method (reference value: 405 nanometer); type: nucleic-acid assay
[34] = Drug uptake in human HepG2 cell nucleus at 10 uM after 2.5 hrs by confocal microscopic method; type: ADME, subcellular; conditions: hepg2, 2.5 h
[35] = test system: Quadruplex DNA; assay: Binding affinity to Bcl2 G-quadruplex DNA (unknown origin) assessed as enhanced fluorescence time at 5 uM after 5 mins by fluorescence titration assay relative to control; type: nucleic-acid assay
[36] = test system: Quadruplex DNA; assay: Binding affinity to human telomeric G-quadruplex DNA assessed as enhanced fluorescence time at 5 uM after 5 mins in presence of sodium ion by fluorescence titration assay relative to control; type: nucleic-acid assay
[37] = Drug uptake in RNase-A treated human HepG2 cell nucleus at 10 uM after 2.5 hrs by confocal microscopic method; type: ADME, subcellular; conditions: hepg2, 2.5 h
[38] = Drug uptake in DNase-1 treated human HepG2 cell nucleus at 10 uM after 2.5 hrs by confocal microscopic method; type: ADME, subcellular; conditions: hepg2, 2.5 h
[39] = test system: Quadruplex DNA; assay: Binding affinity to c-Kit G-quadruplex DNA (unknown origin) assessed as compound fluorescence life time at 5 uM after 5 mins by fluorescence titration method (reference value: 3.626 nanoseconds); type: nucleic-acid assay

Time [1]: 1.51 nanoseconds
Activity [2]: 24 nm
Activity [3]: 586 nm
Activity [5]: 474 nm
Drug uptake [6]: Active
Activity [7]: 588 nm
Time [8]: 2.69 nanoseconds
Drug uptake [9]: Active
Activity [10]: 55.6%
Time [11]: 2.17 nanoseconds
Activity [12]: 40 nm
Activity [13]: 506 nm
Structure (SMILES): CCn1c2ccccc2c2cc(/C=C/c3sc4ccccc4[n+]3CC)ccc21.[I-]
Activity [4]: Active
Activity [14]: Active

Time [15]: 6.35 nanoseconds
Ratio [16]: > 6
Time [17]: 7.25 nanoseconds
Activity [18]: 23 nm
Activity [19]: 41.7%
Activity [20]: 430 nm
Activity [21]: 547 nm
Selectivity ratio [22]: 1.33
Activity [23]: 422 nm
fold change (FC) [24]: 11.2 to 20.6
Activity [25]: 17 nm
Activity [26]: 27.7%
Activity [27]: 29 nm
Drug uptake [28]: Active
Activity [29]: 545 nm
Drug uptake [30]: Not Active
Activity [31]: 25 nm
fold change (FC) [32]: 11.2 to 20.6
Activity [33]: 428 nm
Drug uptake [34]: Not Active
fold change (FC) [35]: 11.2 to 20.6
fold change (FC) [36]: 11.2 to 20.6
Drug uptake [37]: Active
Drug uptake [38]: Not Active
Time [39]: 7.04 nanoseconds
Structure (SMILES): CCn1c2ccccc2c2cc(/C=C(\C#N)c3ccc[n+](C)c3)ccc21.[I-]
